Test results as given in ChEMBL document CHEMBL3600353, “In Vitro Activity of Epigallocatechin Gallate and Quercetin Alone and in Combination versus Clinical Isolates of Methicillin-Resistant Staphylococcus aureus” (2015).
Calls of active or inactive are those of the source. The calls are words filed in the database; no cut-off is given here.

Experiments:
Staphylococcus aureus [1] = test: Antibacterial activity against methicillin-resistant Staphylococcus aureus isolate 6 by disk diffusion assay; format: functional
Staphylococcus aureus [2] = test: Antibacterial activity against methicillin-resistant Staphylococcus aureus isolate 2 after 24 hrs by checkerboard assay; format: functional; details: isolate 2, 24 h
Staphylococcus aureus [3] = test: Antibacterial activity against methicillin-resistant Staphylococcus aureus isolate 3 by disk diffusion assay; format: functional
Staphylococcus aureus [4] = test: Antibacterial activity against methicillin-resistant Staphylococcus aureus isolate 8 by disk diffusion assay; format: functional
Staphylococcus aureus [5] = test: Antibacterial activity against methicillin-resistant Staphylococcus aureus NCTC 12493 after 24 hrs by checkerboard assay; format: functional; details: NCTC 12493, 24 h
Staphylococcus aureus [6] = test: Antibacterial activity against vancomycin-intermediate resistant Staphylococcus aureus Mu50 at 1.69 mM after 4 hrs by time kill assay; format: functional, organism-based
Staphylococcus aureus [7] = test: Antibacterial activity against methicillin-resistant Staphylococcus aureus isolate 4 after 24 hrs by checkerboard assay; format: functional; details: isolate 4, 24 h
Staphylococcus aureus [8] = test: Antibacterial activity against methicillin-resistant Staphylococcus aureus isolate 2 by disk diffusion assay; format: functional
Staphylococcus aureus [9] = test: Antibacterial activity against methicillin-resistant Staphylococcus aureus NCTC 12493 at 1.69 mM after 5 hrs by time kill assay; format: functional, organism-based
Staphylococcus aureus [10] = test: Antibacterial activity against methicillin-resistant Staphylococcus aureus isolate 7 after 24 hrs by checkerboard assay; format: functional; details: isolate 7, 24 h
Staphylococcus aureus [11] = test: Antibacterial activity against methicillin-resistant Staphylococcus aureus isolate 7 by disk diffusion assay; format: functional
Staphylococcus aureus [12] = test: Antibacterial activity against methicillin-resistant Staphylococcus aureus isolate 1 after 24 hrs by checkerboard assay; format: functional; details: isolate 1, 24 h
Staphylococcus aureus [13] = test: Antibacterial activity against methicillin-sensitive Staphylococcus aureus ATCC 25923 at 1.69 mM after 4 hrs by time kill assay; format: functional, organism-based
Staphylococcus aureus [14] = test: Antibacterial activity against methicillin-resistant Staphylococcus aureus NCTC 12493 assessed as log reduction of bacterial growth after 9 hrs; format: functional
Staphylococcus aureus [15] = test: Antibacterial activity against methicillin-resistant Staphylococcus aureus isolate 5 by disk diffusion assay; format: functional
Staphylococcus aureus [16] = test: Antibacterial activity against vancomycin-intermediate resistant Staphylococcus aureus Mu50 after 24 hrs by checkerboard assay; format: functional; details: Mu50, 24 h
Staphylococcus aureus [17] = test: Antibacterial activity against methicillin-resistant Staphylococcus aureus isolate 9 by disk diffusion assay; format: functional
Staphylococcus aureus [18] = test: Antibacterial activity against methicillin-resistant Staphylococcus aureus NCTC 12493 at 1.69 mM after 4 hrs by time kill assay; format: functional, organism-based
Staphylococcus aureus [19] = test: Antibacterial activity against methicillin-resistant Staphylococcus aureus isolate 3 after 24 hrs by checkerboard assay; format: functional; details: isolate 3, 24 h
Staphylococcus aureus [20] = test: Antibacterial activity against Staphylococcus aureus ATCC 25923 after 24 hrs by checkerboard assay; format: functional; details: ATCC 25923, 24 h
Staphylococcus aureus [21] = test: Antibacterial activity against methicillin-resistant Staphylococcus aureus isolate 8 after 24 hrs by checkerboard assay; format: functional; details: isolate 8, 24 h
Staphylococcus aureus [22] = test: Antibacterial activity against methicillin-resistant Staphylococcus aureus isolate 1 by disk diffusion assay; format: functional
Staphylococcus aureus [23] = test: Antibacterial activity against methicillin-resistant Staphylococcus aureus isolate 5 after 24 hrs by checkerboard assay; format: functional; details: isolate 5, 24 h
Staphylococcus aureus [24] = test: Antibacterial activity against methicillin-resistant Staphylococcus aureus isolate 9 after 24 hrs by checkerboard assay; format: functional; details: isolate 9, 24 h
Staphylococcus aureus [25] = test: Antibacterial activity against methicillin-resistant Staphylococcus aureus isolate 4 by disk diffusion assay; format: functional
Staphylococcus aureus [26] = test: Antibacterial activity against methicillin-sensitive Staphylococcus aureus ATCC 25923 at 1.69 mM after 5 hrs by time kill assay; format: functional, organism-based
Staphylococcus aureus [27] = test: Antibacterial activity against methicillin-resistant Staphylococcus aureus isolate 6 after 24 hrs by checkerboard assay; format: functional; details: isolate 6, 24 h

## O=c1c(O)c(-c2ccc(O)c(O)c2)oc2cc(O)cc(O)c12 [QUERCETIN]
Staphylococcus aureus [1]
  inhibition zone (IZ): inactive
Staphylococcus aureus [2]
  MIC: 1690 µM
Staphylococcus aureus [3]
  inhibition zone (IZ): inactive
Staphylococcus aureus [4]
  inhibition zone (IZ): inactive
Staphylococcus aureus [5]
  MIC: 850 µM
Staphylococcus aureus [6]
  Activity: inactive
Staphylococcus aureus [7]
  MIC: 1690 µM
Staphylococcus aureus [8]
  inhibition zone (IZ): inactive
Staphylococcus aureus [9]
  Activity: inactive
Staphylococcus aureus [10]
  MIC: 1690 µM
Staphylococcus aureus [11]
  inhibition zone (IZ): inactive
Staphylococcus aureus [12]
  MIC: 1690 µM
Staphylococcus aureus [13]
  Activity: Active
Staphylococcus aureus [14]
  FC: 1
Staphylococcus aureus [15]
  inhibition zone (IZ): inactive
Staphylococcus aureus [16]
  MIC: 1690 µM
Staphylococcus aureus [17]
  inhibition zone (IZ): inactive
Staphylococcus aureus [18]
  Activity: Active
Staphylococcus aureus [19]
  MIC: 1690 µM
Staphylococcus aureus [20]
  MIC: 1690 µM
Staphylococcus aureus [21]
  MIC: 1690 µM
Staphylococcus aureus [22]
  inhibition zone (IZ): 8 mm
Staphylococcus aureus [23]
  MIC: 1690 µM
Staphylococcus aureus [24]
  MIC: 1690 µM
Staphylococcus aureus [25]
  inhibition zone (IZ): inactive
Staphylococcus aureus [26]
  Activity: inactive
Staphylococcus aureus [27]
  MIC: 1690 µM
